{
  "source": "patent US11708562B2",
  "about": "“Differentiation of human embryonic stem cells” (Janssen Biotech, Inc., priority 2006, dated 2023)",
  "key": {"[1]": {"tested_on": "human embryonic stem cell line H7", "assay": "FACS protein expression with time following activin A treatment (Table IIB)", "assay_type": "cell-based", "conditions": "AA 100 ng/ml", "description": "(§1) The level of expression of definitive endoderm markers was examined by PCR (FIGS. 1A and 1B), FACS (results summarized in Table I), and immunohistochemistry (FIGS. 2A, 2B and 2C).\n(§2) Adhered cells were removed from culture plates by five-minute incubation with TrypLE™ Express solution (Invitrogen, CA). Released cells were resuspended in human embryonic stem cell culture medium and recovered by centrifugation, followed by washing and resuspending the cells in a staining buffer consisting of 2% BSA, 0.05% sodium azide in PBS (Sigma, MO). As appropriate, the cells were Fc-receptor blocked for 15 minutes using a 0.1% γ-globulin (Sigma) solution. […] Controls included appropriate isotype matched antibodies, unstained cells, and cells stained only with secondary conjugated antibody. All incubations with antibodies were performed for 30 mins at 4° C. after which the cells were washed with the staining buffer. Samples that were stained with unconjugated primary antibodies were incubated for an additional 30 mins at 4° C. with secondary conjugated PE or -APC labeled antibodies. See Table I for a list of secondary antibodies used. Washed cells were pelleted and resuspended in the staining buffer, and the cell surface molecules were identified using a FACS Array (BD Biosciences) instrument, collecting at least 10,000 events."}, "[2]": {"tested_on": "human embryonic stem cell line H1", "assay": "FACS protein expression following 5-day activin A treatment (Table IIC)", "assay_type": "cell-based", "conditions": "5-day AA treatment", "description": "as §1, §2"}},
  "data": [
    {"substance": "Activin A: a member of the TGFβ superfamily; growth factor (R&D Systems) used to differentiate human embryonic stem cells", "values": [
      {"measurement": "CXCR4+ C-Kit+ cells (FACS)", "setting": "[1]; 1-day", "value": 2.97, "unit": "%"},
      {"measurement": "CXCR4+ CD9+ cells (FACS)", "setting": "[1]; 1-day", "value": 8.13, "unit": "%"},
      {"measurement": "CXCR4+ EPCAM+ cells (FACS)", "setting": "[1]; 1-day", "value": 14.58, "unit": "%"},
      {"measurement": "CXCR4+ cells (FACS)", "setting": "[1]; 1-day", "value": 6, "unit": "%"},
      {"measurement": "CXCR4+ C-Kit+ cells (FACS)", "setting": "[1]; 3-day", "value": 31.56, "unit": "%"},
      {"measurement": "CXCR4+ CD9+ cells (FACS)", "setting": "[1]; 3-day", "value": 24.11, "unit": "%"},
      {"measurement": "CXCR4+ EPCAM+ cells (FACS)", "setting": "[1]; 3-day", "value": 36.67, "unit": "%"},
      {"measurement": "CXCR4+ cells (FACS)", "setting": "[1]; 3-day", "value": 38, "unit": "%"},
      {"measurement": "CXCR4+ C-Kit+ cells (FACS)", "setting": "[1]; 5-day", "value": 55.21, "unit": "%"},
      {"measurement": "CXCR4+ CD9+ cells (FACS)", "setting": "[1]; 5-day", "value": 2.1, "unit": "%"},
      {"measurement": "CXCR4+ EPCAM+ cells (FACS)", "setting": "[1]; 5-day", "value": 54.5, "unit": "%"},
      {"measurement": "CXCR4+ cells (FACS)", "setting": "[1]; 5-day", "value": 65.5, "unit": "%"},
      {"measurement": "CXCR4+ cells (FACS)", "setting": "[2]", "value": 92.78, "unit": "%"},
      {"measurement": "CXCR4+/C-kit+ cells (FACS)", "setting": "[2]", "value": 92.90, "unit": "%"},
      {"measurement": "CXCR4+/CD9+ cells (FACS)", "setting": "[2]", "value": 7.03, "unit": "%"},
      {"measurement": "CXCR4+/CD99+ cells (FACS)", "setting": "[2]", "value": 88.78, "unit": "%"},
      {"measurement": "CXCR4+/EPCAM cells (FACS)", "setting": "[2]", "value": 87.99, "unit": "%"}
    ]}
  ]
}
